Measured values reported in article PMC8391421, “Identification of Novel Positive Allosteric Modulators of Neurotrophin Receptors for the Treatment of Cognitive Dysfunction” (Cells, 2021).

Columns and labels:
[1] = test system: Shaffer collaterals-CA1 pathway, hippocampal slices; assay: Facilitation of long-term potentiation in rat hippocampal slices; settings: 20 µM added 15 min before Ø burst stimulation; n = 7 slices from 5 rats
Description: Male Sprague Dawley rats (4–5 weeks old) from Charles River Laboratories, Sulzfeld, Germany, were used in these experiments. Rats were deeply anesthetized using isoflurane and decapitated soon after the disappearance of the corneal reflexes. The brains were removed and placed in ice-cold standard artificial CSF (aCSF) solution (124 mM NaCl, 30 mM NaHCO3, 10 mM glucose, 1.25 mM NaH2PO4, 3.5 mM KCl, 1 mM MgCl2, 2 mM CaCl2). Hippocampal horizontal sections (400 µm thick) were prepared using a Leica VT1200S vibratome (Leica Microsystems, Kista, Sweden). Immediately after slicing, sections were transferred into an interface incubation chamber filled with standard aCSF. The chamber was held at 34 °C during the slicing period and was subsequently allowed to cool down to room temperature. […] The facilitation of long-term potentiation (LTP) was monitored in the Shaffer collaterals (SC)-CA1 pathway in the hippocampus. […] Data were normalized with respect to the mean fEPSP slope recorded during the last 10 min of the baseline period.
It has been well-described that the transient, short-term plasticity of synaptic strength induced by a weak stimulation in hippocampal slices can turn into long-term potentiation (LTP) through the exogenous application of BDNF [71, 72, 73]. […] In the control slices, the recorded potentiation decreased to the baseline level after 60 min. […]

C57BL/6J mice = assay: Passive avoidance task; format: in vivo, mouse
Description: The passive avoidance (PA) task is an associate learning paradigm that is based on Pavlovian fear-conditioning and instrumental conditioning and conducted as previously described in male C57BL/6J mice (n = 7–8/group) from Charles River Laboratories, Sulzfeld, Germany. Vehicle or ACD855 (1, 3 or 10 mg/kg), formulated in 20% DMSO in 0.1 M sodium phosphate buffer pH 8.0, was administered daily (Days 1–4) through s.c. injections (4 mL/kg body weight). ACD856 (0.1, 0.3, 1 or 3 mg/kg) was administered by a single s.c. dose on the training day (Day 4). ACD855, ACD856, ANA-12 (0.5 mg/kg, from Sigma Aldrich, Stockholm, Sweden), physostigmine (0.025 mg/kg, from Sigma Aldrich, Stockholm, Sweden), or vehicle was administered 60 min prior to training, except for when addressing the effects on consolidation, in which case, ACD856 was dosed 5 min after the training session on day 4. Moreover, on the training day (Day 4), scopolamine or the NMDA-antagonist MK-801 (both from Sigma Aldrich, Stockholm, Sweden) at 0.3 mg/kg or vehicle was administered once s.c. 30 min prior to training. No compound was administered on the test day (Day 5), except for when addressing effects on retrieval, in which case, ACD856 was dosed 30 min prior to testing on day 5. Retention latencies and time spent in the bright compartment were determined 24 h after training (Day 5).

In the case of `Cc1cc(-n2c(=O)[nH]c(=O)n(C)c2=O)ccc1Oc1ccc(S(=O)(=O)C(F)(F)F)cc1` [ACD855, Toltrazuril-sulfone], the “long-lasting potentiation of evoked synaptic responses (fEPSP slope), fold increase” value [1] is reported as 1.21 ± 0.03 fold, the “effect on scopolamine-induced memory impairment (time spent in bright compartment)” value (C57BL/6J mice; 3 or 10 mg/kg s.c. once daily for four days, scopolamine 0.3 mg/kg) is reported as “significantly attenuate” and the “effect of ANA-12 on compound's reversal of scopolamine-induced memory impairment” value (C57BL/6J mice; ANA-12 0.5 mg/kg s.c.) is reported as “blocked by ANA-12”. For the same molecule, the “effect on MK-801-induced memory impairment” value (C57BL/6J mice; MK-801 0.3 mg/kg) was “ameliorate”, the “effect of combined administration with physostigmine on scopolamine-induced memory impairment” value (C57BL/6J mice; low dose of compound plus physostigmine 0.025 mg/kg) was “significantly reverse” and the “effect of low dose alone on scopolamine-induced memory impairment” value (C57BL/6J mice; low doses given by themselves, physostigmine 0.025 mg/kg) was “no significant effect”. The “pro-cognitive effects and other behavioral parameters in naive animals” value (C57BL/6J mice; naïve young healthy animals) was “none of the two compounds had any pro-cognitive effects”.
